2 compounds from patent publication US20080312246A1, “Substituted Piperazines as Metabotropic Glutamate Receptor Antagonists” (AstraZeneca AB, priority 2005, published 2008) can be followed below.

The target of this assay is T1, human mGluR5d (Homo sapiens, UniProt P41594).
T1 construct: expressed in transfected cells; host or cells: GHEK (HEK cells expressing a glutamate transporter) for the IP3 assay
Description: Functional assessment of mGluR5 antagonism in cell lines expressing mGluR5d (FLIPR calcium mobilization / IP3 turnover; assay behind the values not specified). As to conditions: cells expressing human mGluR5d; FLIPR or IP3 assay not specified. Type of assay: cell-based. The text has this: The pharmacological properties of the compounds of the invention can be analyzed using standard assays for functional activity. Examples of glutamate receptor assays are well known in the art as described in for example Aramori et al., Neuron 8:757 (1992), Tanabe et al., Neuron 8:169 (1992), Miller et al., J. Neuroscience 15: 6103 (1995), Balazs, et al., J. Neurochemistry 69:151 (1997). The methodology described in these publications is incorporated herein by reference. Conveniently, the compounds of the invention can be studied by means of an assay that measures the mobilization of intracellular calcium, [Ca^2+]i in cells expressing mGluR5.
Intracellular calcium mobilization was measured by detecting changes in fluorescence of cells loaded with the fluorescent indicator fluo-3. Fluorescent signals were measured using the FLIPR system (Molecular Devices). […]
FLIPR experiments were done using a laser setting of 0.800 W and a 0.4 second CCD camera shutter speed. […] After each addition of the compound, the fluorescence signal was sampled 50 times at 1 second intervals followed by 3 samples at 5 second intervals. Responses were measured as the peak height of the response within the sample period. […]
We have validated a secondary functional assay for mGluR5d based on Inositol Phosphate (IP3) turnover. IP3 accumulation is measured as an index of receptor mediated phospholipase C turnover. […]
(A change in cytosolic calcium serves as a functional read-out for many receptors and channels.)

Structures are written as SMILES.

One may read the IC50 as the concentration at which inhibition is half-maximal.

T1 sequence (P41594 21-942 isoform P41594-3 limits assumed): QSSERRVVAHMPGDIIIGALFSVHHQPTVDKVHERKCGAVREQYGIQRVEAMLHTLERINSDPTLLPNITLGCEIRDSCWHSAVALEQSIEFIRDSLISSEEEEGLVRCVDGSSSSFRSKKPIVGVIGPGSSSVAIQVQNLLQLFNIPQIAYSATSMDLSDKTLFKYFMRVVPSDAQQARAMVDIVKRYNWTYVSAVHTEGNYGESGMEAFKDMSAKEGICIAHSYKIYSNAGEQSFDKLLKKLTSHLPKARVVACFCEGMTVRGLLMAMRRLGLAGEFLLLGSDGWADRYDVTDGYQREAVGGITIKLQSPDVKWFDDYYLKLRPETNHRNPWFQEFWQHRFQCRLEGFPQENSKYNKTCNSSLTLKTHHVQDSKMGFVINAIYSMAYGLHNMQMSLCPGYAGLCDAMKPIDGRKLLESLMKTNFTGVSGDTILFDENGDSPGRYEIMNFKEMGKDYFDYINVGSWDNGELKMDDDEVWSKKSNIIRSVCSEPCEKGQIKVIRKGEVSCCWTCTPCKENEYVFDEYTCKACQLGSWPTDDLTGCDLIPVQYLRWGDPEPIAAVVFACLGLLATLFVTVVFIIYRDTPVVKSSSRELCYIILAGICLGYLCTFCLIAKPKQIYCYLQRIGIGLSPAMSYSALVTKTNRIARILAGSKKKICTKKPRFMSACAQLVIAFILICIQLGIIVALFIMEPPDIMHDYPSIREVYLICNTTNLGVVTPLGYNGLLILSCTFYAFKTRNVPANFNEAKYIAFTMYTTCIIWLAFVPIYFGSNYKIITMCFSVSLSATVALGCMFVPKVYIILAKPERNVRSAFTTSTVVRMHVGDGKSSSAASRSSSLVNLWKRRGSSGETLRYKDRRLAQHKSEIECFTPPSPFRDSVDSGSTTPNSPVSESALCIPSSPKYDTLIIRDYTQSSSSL

On to `CC(c1cn(-c2cccc(Cl)c2)nn1)N1CCN(c2ncccc2C#N)CC1` (centres unmarked) [Example 15.16, 2-(4-{1-[1-(3-chlorophenyl)-1H-1,2,3-triazol-4-yl]ethyl}piperazin-1-yl)nicotinonitrile], for which the IC50 stood at 1080 nM.

`CC(c1cn(-c2cccc(Cl)c2)nn1)N1CCN(c2ccc(C#N)cn2)CC1` (centres unmarked) [Example 15.17, 6-(4-{1-[1-(3-chlorophenyl)-1H-1,2,3-triazol-4-yl]ethyl}piperazin-1-yl)nicotinonitrile]: the IC50 was 159 nM.
